Measured values as given in article PMC3399817 (PLoS ONE, 2012).

Experiments:
ACVR1 = biological target: T1, ACVR1 (Homo sapiens, UniProt Q04771); test: KINOMEscan; format: binding; settings: ACVR1, 1 uM
T1 construct: purchased Ambit KINOMEscan (DiscoverX)
Summary of the method: (§1)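 Binding assay, no enzymatic read-out; all compounds tested at 1 μM to find kinases whose substrate binding they inhibit.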

AURKA = biological target: T2, AURKA (Homo sapiens, UniProt O14965); test: KINOMEscan; format: binding; settings: 1 uM
T2 construct: purchased Ambit KINOMEscan (DiscoverX)
Summary of the method: as §1

CAMK2A = biological target: T3, CAMK2A (Homo sapiens, UniProt Q9UQM7); test: KINOMEscan; format: binding; settings: 1 uM
T3 construct: purchased Ambit KINOMEscan (DiscoverX)
Summary of the method: as §1

CDK7 = biological target: T4, CDK7 (Homo sapiens, UniProt P50613); test: KINOMEscan; format: binding; settings: CDK7, 1 uM
T4 construct: purchased Ambit KINOMEscan (DiscoverX)
Summary of the method: as §1

EPHB1 = biological target: T5, EPHB1 (Homo sapiens, UniProt P54762); test: KINOMEscan; format: binding; settings: EPHB1, 1 uM
T5 construct: purchased Ambit KINOMEscan (DiscoverX)
Summary of the method: as §1

FGFR2 = biological target: T6, FGFR2 (Homo sapiens, UniProt P21802); test: KINOMEscan; format: binding; settings: FGFR2, 1 uM
T6 construct: purchased Ambit KINOMEscan (DiscoverX)
Summary of the method: as §1

MST4 = biological target: T7, MST4 (Homo sapiens, UniProt Q9P289); test: KINOMEscan; format: binding; settings: MST4, 1 uM
T7 construct: purchased Ambit KINOMEscan (DiscoverX)
Summary of the method: as §1

PDGFRB = biological target: T8, PDGFRB (Homo sapiens, UniProt P09619); test: KINOMEscan; format: binding; settings: 1 uM
T8 construct: purchased Ambit KINOMEscan (DiscoverX)
Summary of the method: as §1

PRKCD = biological target: T9, PRKCD (Homo sapiens, UniProt Q05655); test: KINOMEscan; format: binding; settings: 1 uM
T9 construct: purchased Ambit KINOMEscan (DiscoverX)
Summary of the method: as §1

PRKD1 = biological target: T10, PRKD1 (Homo sapiens, UniProt Q15139); test: KINOMEscan; format: binding; settings: PRKD1, 1 uM
T10 construct: purchased Ambit KINOMEscan (DiscoverX)
Summary of the method: as §1

PRKR = biological target: T11, PRKR (Homo sapiens, UniProt P19525); test: KINOMEscan; format: binding; settings: 1 uM
T11 construct: purchased Ambit KINOMEscan (DiscoverX)
Summary of the method: as §1

SRPK3 = biological target: T12, SRPK3 (Homo sapiens, UniProt Q9UPE1); test: KINOMEscan; format: binding; settings: SRPK3, 1 uM
T12 construct: purchased Ambit KINOMEscan (DiscoverX)
Summary of the method: as §1

TNNI3K = biological target: T13, TNNI3K (Homo sapiens, UniProt Q59H18); test: KINOMEscan; format: binding; settings: 1 uM
T13 construct: purchased Ambit KINOMEscan (DiscoverX)
Summary of the method: as §1

MAPKAPK2 = biological target: T14, MAPKAPK2 (Homo sapiens, UniProt P49137); test: KINOMEscan; format: binding; settings: MAPKAPK2, 1 uM
T14 construct: purchased Ambit KINOMEscan (DiscoverX)

PRP4 = biological target: T15, PRP4 (Homo sapiens, UniProt Q13523); test: KINOMEscan; format: binding; settings: PRP4, 1 uM
T15 construct: purchased Ambit KINOMEscan (DiscoverX)

HKe-3 (K-RAS^−/+) = test: Cell viability (Syto60); format: cell-based; settings: 72 hours; for cooperation with / sensitization to AZ-628 (cell viability): K-RAS wild-type cells (HKe-3), 1 µM AZ-628
Experimental: All colon cancer cell lines were maintained in DMEM supplemented with penicillin (100 units/mL), streptomycin (100 μg/mL), and 10% fetal bovine serum (FBS). The rectal cancer cell line (Car1) was maintained in DMEM/F12 supplemented with penicillin (100 units/mL)/streptomycin (50 μg/mL), and 5% FBS. […] The target sequences for knockdowns can be found in Table S2. In drug treatment experiments, cells were plated for 24 hours prior to exposure to drug. AZ-628 was obtained from AstraZeneca. CI-1040 was obtained from Pfizer. R406 was synthesized in the Gray laboratory. BAY61-3606 and IKK VII were purchased from EMD Biosciences. BAY derivatives were synthesized for this study.
Cell cycle analysis was performed via FACS-based propidium iodide quantification, using standard methods. To measure cell viability, cells were grown in 96-well plates in the presence or absence of drug for 72 hours, fixed with 4% paraformaldehyde, and then stained with Syto60 (Invitrogen). Plates were imaged and quantified using the LiCor Odyssey system (LiCor).

panel of 402 kinases = test: KINOMEscan panel; format: binding; settings: 1 μM
Experimental: First, we used Ambit's KINOMEscan™ technology to identify those kinases that are inhibited for substrate binding by the compounds, all assayed at 1 μM. Second, we used Invitrogen's SelectScreen® Biochemical Kinase Profiling Service to determine the in vitro IC50s for the compounds against specific kinases.

[1] = biological target: T16, ABL1(F317L)-nonphosphorylated (Homo sapiens, UniProt P00519, F317L); test: KINOMEscan; format: binding; settings: 1 uM
T16 construct: purchased Ambit KINOMEscan (DiscoverX)
Summary of the method: as §1

CAMK2B = biological target: T17, CAMK2B (Homo sapiens, UniProt Q13554); test: KINOMEscan; format: binding; settings: 1 uM
T17 construct: purchased Ambit KINOMEscan (DiscoverX)
Summary of the method: as §1

CAMK2G = biological target: T18, CAMK2G (Homo sapiens, UniProt Q13555); test: KINOMEscan; format: binding; settings: 1 uM
T18 construct: purchased Ambit KINOMEscan (DiscoverX)
Summary of the method: as §1

CDK4-cyclinD3 = biological target: T19, CDK4-cyclinD3 (Homo sapiens, UniProt P11802); test: KINOMEscan; format: binding; settings: CDK4-cyclinD3, 1 uM
T19 construct: purchased Ambit KINOMEscan (DiscoverX)
Summary of the method: as §1

CDKL1 = biological target: T20, CDKL1 (Homo sapiens, UniProt Q00532); test: KINOMEscan; format: binding; settings: CDKL1, 1 uM
T20 construct: purchased Ambit KINOMEscan (DiscoverX)
Summary of the method: as §1

DCAMKL2 = biological target: T21, DCAMKL2 (Homo sapiens, UniProt Q8N568); test: KINOMEscan; format: binding; settings: DCAMKL2, 1 uM
T21 construct: purchased Ambit KINOMEscan (DiscoverX)
Summary of the method: as §1

FLT3 = biological target: T22, FLT3 (Homo sapiens, UniProt P36888); test: KINOMEscan; format: binding; settings: FLT3, 1 uM
T22 construct: purchased Ambit KINOMEscan (DiscoverX)
Summary of the method: as §1

FLT3(K663Q) = biological target: T23, FLT3(K663Q) (Homo sapiens, UniProt P36888, K663Q); test: KINOMEscan; format: binding; settings: 1 uM
T23 construct: purchased Ambit KINOMEscan (DiscoverX)
Summary of the method: as §1

KIT(A829P) = biological target: T24, KIT(A829P) (Homo sapiens, UniProt P10721, A829P); test: KINOMEscan; format: binding; settings: 1 uM
T24 construct: purchased Ambit KINOMEscan (DiscoverX)
Summary of the method: as §1

MEK5 = biological target: T25, MEK5 (Homo sapiens, UniProt Q13163); test: KINOMEscan; format: binding; settings: MEK5, 1 uM
T25 construct: purchased Ambit KINOMEscan (DiscoverX)
Summary of the method: as §1

MET(M1250T) = biological target: T26, MET(M1250T) (Homo sapiens, UniProt P08581, M1250T); test: KINOMEscan; format: binding; settings: 1 uM
T26 construct: purchased Ambit KINOMEscan (DiscoverX)
Summary of the method: as §1

NEK11 = biological target: T27, NEK11 (Homo sapiens, UniProt Q8NG66); test: KINOMEscan; format: binding; settings: NEK11, 1 uM
T27 construct: purchased Ambit KINOMEscan (DiscoverX)
Summary of the method: as §1

PIP5K1C = biological target: T28, PIP5K1C (Homo sapiens, UniProt O60331); test: KINOMEscan; format: binding; settings: 1 uM
T28 construct: purchased Ambit KINOMEscan (DiscoverX)
Summary of the method: as §1

PIP5K2C = biological target: T29, PIP5K2C (Homo sapiens, UniProt Q8TBX8); test: KINOMEscan; format: binding; settings: 1 uM
T29 construct: purchased Ambit KINOMEscan (DiscoverX)
Summary of the method: as §1

PRKCI = biological target: T30, PRKCI (Homo sapiens, UniProt P41743); test: KINOMEscan; format: binding; settings: 1 uM
T30 construct: purchased Ambit KINOMEscan (DiscoverX)
Summary of the method: as §1

RIPK5 = biological target: T31, RIPK5 (Homo sapiens, UniProt Q6XUX3); test: KINOMEscan; format: binding; settings: RIPK5, 1 uM
T31 construct: purchased Ambit KINOMEscan (DiscoverX)
Summary of the method: as §1

YANK1 = biological target: T32, YANK1 (Homo sapiens, UniProt Q8WU08); test: KINOMEscan; format: binding; settings: YANK1, 1 uM
T32 construct: purchased Ambit KINOMEscan (DiscoverX)
Summary of the method: as §1

T5 sequence (P54762 18-984): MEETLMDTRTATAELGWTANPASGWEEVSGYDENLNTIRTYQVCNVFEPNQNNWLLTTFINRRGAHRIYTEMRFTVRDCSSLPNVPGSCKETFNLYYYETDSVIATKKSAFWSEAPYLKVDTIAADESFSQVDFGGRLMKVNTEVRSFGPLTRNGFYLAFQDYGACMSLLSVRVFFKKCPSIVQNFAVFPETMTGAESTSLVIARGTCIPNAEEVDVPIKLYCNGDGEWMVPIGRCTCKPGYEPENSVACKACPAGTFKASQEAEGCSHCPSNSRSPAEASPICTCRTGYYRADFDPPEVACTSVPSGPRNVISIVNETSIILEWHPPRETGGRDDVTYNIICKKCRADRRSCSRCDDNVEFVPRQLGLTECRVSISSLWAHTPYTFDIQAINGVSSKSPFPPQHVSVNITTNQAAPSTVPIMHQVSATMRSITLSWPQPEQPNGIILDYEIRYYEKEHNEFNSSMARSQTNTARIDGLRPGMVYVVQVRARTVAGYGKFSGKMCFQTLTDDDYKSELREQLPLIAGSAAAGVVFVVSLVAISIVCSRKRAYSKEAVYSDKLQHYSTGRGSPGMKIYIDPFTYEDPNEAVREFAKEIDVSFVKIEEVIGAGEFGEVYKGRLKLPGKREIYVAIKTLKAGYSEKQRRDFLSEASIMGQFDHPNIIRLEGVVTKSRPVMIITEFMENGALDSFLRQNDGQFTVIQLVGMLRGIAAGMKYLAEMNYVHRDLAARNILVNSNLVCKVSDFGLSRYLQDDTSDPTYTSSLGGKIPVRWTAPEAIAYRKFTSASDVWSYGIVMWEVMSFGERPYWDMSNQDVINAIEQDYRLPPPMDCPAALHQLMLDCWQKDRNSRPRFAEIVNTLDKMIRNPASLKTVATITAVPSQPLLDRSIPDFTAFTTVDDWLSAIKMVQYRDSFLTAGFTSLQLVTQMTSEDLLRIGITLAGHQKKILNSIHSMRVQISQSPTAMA
T3 sequence (Q9UQM7 whole entry): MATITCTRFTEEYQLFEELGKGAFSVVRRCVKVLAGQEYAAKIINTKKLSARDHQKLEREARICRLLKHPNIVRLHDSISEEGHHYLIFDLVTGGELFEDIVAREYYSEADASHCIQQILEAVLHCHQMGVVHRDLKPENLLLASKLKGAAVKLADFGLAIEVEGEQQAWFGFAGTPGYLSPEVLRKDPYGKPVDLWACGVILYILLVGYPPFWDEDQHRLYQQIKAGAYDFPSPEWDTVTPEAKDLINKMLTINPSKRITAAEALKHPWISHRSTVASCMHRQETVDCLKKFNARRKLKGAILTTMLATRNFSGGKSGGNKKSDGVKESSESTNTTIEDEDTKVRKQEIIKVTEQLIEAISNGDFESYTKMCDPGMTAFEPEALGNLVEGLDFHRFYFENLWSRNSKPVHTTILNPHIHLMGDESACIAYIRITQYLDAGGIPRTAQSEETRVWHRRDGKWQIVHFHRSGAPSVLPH
T8 sequence (P09619 33-1106): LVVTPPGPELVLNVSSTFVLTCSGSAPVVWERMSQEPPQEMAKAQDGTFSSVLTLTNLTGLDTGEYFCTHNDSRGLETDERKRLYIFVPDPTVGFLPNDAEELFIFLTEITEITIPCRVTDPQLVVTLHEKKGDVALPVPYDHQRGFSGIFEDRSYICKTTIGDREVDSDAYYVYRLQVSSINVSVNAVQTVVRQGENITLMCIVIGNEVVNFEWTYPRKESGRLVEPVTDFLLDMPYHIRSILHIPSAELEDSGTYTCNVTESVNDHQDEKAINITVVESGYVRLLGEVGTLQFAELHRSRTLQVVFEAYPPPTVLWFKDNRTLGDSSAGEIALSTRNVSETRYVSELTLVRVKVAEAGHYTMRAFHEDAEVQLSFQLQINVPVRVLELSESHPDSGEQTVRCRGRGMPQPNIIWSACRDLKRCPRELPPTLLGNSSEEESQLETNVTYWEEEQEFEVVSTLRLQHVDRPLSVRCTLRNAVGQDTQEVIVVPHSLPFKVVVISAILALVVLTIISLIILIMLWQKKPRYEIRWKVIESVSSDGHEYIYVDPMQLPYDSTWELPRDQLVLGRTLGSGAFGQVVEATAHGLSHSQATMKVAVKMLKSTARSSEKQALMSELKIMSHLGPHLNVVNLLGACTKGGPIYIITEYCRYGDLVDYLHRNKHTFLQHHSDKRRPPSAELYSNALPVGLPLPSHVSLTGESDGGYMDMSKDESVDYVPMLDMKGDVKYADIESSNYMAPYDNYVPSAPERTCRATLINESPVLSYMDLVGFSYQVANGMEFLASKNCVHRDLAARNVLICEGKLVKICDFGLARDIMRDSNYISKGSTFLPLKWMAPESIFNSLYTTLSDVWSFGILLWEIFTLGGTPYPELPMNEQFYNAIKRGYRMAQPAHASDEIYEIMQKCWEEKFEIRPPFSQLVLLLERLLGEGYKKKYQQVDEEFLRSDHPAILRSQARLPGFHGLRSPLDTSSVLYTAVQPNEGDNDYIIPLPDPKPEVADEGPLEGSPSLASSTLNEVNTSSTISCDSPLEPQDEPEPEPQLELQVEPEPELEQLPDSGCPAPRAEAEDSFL
T13 sequence (Q59H18 whole entry): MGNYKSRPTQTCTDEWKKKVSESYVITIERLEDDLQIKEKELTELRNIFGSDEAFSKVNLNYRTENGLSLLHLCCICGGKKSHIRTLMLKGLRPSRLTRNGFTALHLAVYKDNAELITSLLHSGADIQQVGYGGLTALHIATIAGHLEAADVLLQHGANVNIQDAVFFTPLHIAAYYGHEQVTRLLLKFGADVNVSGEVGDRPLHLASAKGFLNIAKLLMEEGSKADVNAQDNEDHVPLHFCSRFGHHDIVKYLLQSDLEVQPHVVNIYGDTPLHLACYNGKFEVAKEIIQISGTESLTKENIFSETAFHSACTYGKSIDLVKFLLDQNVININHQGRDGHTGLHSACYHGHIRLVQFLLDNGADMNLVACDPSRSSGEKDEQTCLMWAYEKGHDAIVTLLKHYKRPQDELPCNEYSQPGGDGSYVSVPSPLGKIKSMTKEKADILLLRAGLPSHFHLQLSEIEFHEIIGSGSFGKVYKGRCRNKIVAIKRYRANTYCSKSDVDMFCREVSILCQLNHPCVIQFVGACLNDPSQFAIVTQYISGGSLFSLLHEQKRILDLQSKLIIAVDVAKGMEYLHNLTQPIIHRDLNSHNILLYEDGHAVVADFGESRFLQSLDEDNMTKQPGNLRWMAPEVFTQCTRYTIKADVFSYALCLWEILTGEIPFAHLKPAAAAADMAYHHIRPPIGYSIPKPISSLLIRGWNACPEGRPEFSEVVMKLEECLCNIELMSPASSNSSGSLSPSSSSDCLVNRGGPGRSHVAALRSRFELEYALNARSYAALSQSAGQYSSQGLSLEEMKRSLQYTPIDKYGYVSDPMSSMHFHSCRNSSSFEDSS
T4 sequence (P50613 whole entry): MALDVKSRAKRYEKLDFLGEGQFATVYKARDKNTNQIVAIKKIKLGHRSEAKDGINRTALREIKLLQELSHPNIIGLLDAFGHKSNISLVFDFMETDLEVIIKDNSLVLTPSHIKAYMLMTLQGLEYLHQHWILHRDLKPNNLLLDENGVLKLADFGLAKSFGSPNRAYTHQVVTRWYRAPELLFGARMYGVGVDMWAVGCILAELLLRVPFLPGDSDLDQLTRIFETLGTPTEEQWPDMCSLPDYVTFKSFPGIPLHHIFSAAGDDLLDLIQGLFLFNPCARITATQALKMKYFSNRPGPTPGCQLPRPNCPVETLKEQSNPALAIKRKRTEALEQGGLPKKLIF
T7 sequence (Q9P289 whole entry): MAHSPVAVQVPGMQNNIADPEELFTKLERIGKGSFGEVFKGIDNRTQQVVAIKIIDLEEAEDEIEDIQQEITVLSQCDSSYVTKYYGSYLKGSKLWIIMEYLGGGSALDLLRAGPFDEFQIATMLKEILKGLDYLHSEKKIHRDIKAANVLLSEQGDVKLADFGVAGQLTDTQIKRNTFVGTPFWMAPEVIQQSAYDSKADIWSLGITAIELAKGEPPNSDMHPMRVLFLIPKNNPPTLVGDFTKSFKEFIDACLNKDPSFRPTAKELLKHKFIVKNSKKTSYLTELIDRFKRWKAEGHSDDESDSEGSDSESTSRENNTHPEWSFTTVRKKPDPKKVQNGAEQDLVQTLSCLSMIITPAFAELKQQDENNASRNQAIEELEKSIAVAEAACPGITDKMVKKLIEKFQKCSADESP
T2 sequence (O14965 whole entry): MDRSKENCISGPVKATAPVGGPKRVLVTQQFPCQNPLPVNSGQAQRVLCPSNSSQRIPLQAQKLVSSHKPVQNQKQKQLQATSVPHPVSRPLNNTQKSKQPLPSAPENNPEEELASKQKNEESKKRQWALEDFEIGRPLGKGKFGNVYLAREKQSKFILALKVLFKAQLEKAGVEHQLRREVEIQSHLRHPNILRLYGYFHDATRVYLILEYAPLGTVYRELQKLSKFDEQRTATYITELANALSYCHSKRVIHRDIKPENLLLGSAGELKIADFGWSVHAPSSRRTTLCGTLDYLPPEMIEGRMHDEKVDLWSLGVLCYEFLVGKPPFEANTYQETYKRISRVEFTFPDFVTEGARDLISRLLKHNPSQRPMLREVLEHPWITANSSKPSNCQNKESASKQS
T14 sequence (P49137 whole entry): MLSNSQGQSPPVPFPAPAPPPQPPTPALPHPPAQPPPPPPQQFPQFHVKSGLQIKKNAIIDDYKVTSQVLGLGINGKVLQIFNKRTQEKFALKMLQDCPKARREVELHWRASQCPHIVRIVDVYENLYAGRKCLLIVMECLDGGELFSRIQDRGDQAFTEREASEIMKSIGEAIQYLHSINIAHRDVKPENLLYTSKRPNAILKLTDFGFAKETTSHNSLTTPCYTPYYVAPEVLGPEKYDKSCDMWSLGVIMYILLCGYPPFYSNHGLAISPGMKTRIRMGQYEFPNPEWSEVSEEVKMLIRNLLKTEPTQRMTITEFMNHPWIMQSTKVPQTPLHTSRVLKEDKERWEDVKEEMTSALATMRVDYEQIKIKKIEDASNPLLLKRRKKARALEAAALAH

COc1ccc(-c2cc3nccn3c(Nc3ncccc3C(N)=O)n2)cc1OC.Cl.Cl [BAY61-3606, 2-[7-(3,4-dimethoxyphenyl)-imidazo [1,2-c]pyrimidin-5-ylamino] nicotinamide dihydrochloride, reference compound]
% binding compared to no inhibitor control (ACVR1): 78%
% binding compared to no inhibitor control (AURKA): 91%
% binding compared to no inhibitor control (CAMK2A): 64%
% binding compared to no inhibitor control (CDK7): 33%
% binding compared to no inhibitor control (EPHB1): 90%
% binding compared to no inhibitor control (FGFR2): 100%
% binding compared to no inhibitor control (MST4): 57%
% binding compared to no inhibitor control (PDGFRB): 47%
% binding compared to no inhibitor control (PRKCD): 94%
% binding compared to no inhibitor control (PRKD1): 39%
% binding compared to no inhibitor control (PRKR): 27%
% binding compared to no inhibitor control (SRPK3): 74%
% binding compared to no inhibitor control (TNNI3K): 100%
% binding compared to no inhibitor control (MAPKAPK2): 100%
% binding compared to no inhibitor control (PRP4): 77%
sensitization to AZ-628 (cell viability) (HKe-3 (K-RAS^−/+); HKe-3 cells with MAP4K2 knockdown, 1 µM + 1 µM AZ-628): no longer sensitizes
cooperation with / sensitization to AZ-628 (cell viability) (HKe-3 (K-RAS^−/+)): became sensitive
number of kinases with binding inhibited by greater than 90% (panel of 402 kinases; panel of 402 kinases): 15 kinases

COc1ccccc1Nc1nc(-c2ccc(OC)c(OC)c2)cc2nccn12 [BAY derivative 6]
% binding compared to no inhibitor control [1]: 100%
% binding compared to no inhibitor control (ACVR1): 98%
% binding compared to no inhibitor control (AURKA): 87%
% binding compared to no inhibitor control (CAMK2A): 96%
% binding compared to no inhibitor control (CAMK2B): 100%
% binding compared to no inhibitor control (CAMK2G): 100%
% binding compared to no inhibitor control (CDK4-cyclinD3): 95%
% binding compared to no inhibitor control (CDK7): 100%
% binding compared to no inhibitor control (CDKL1): 100%
% binding compared to no inhibitor control (DCAMKL2): 100%
% binding compared to no inhibitor control (EPHB1): 100%
% binding compared to no inhibitor control (FGFR2): 83%
% binding compared to no inhibitor control (FLT3): 52%
% binding compared to no inhibitor control (FLT3(K663Q)): 63%
% binding compared to no inhibitor control (KIT(A829P)): 35%
% binding compared to no inhibitor control (MEK5): 100%
% binding compared to no inhibitor control (MET(M1250T)): 100%
% binding compared to no inhibitor control (MST4): 72%
% binding compared to no inhibitor control (NEK11): 84%
% binding compared to no inhibitor control (PDGFRB): 67%
% binding compared to no inhibitor control (PIP5K1C): 71%
% binding compared to no inhibitor control (PIP5K2C): 99%
% binding compared to no inhibitor control (PRKCD): 100%
% binding compared to no inhibitor control (PRKCI): 100%
% binding compared to no inhibitor control (PRKD1): 100%
% binding compared to no inhibitor control (PRKR): 100%
% binding compared to no inhibitor control (RIPK5): 100%
% binding compared to no inhibitor control (SRPK3): 100%
% binding compared to no inhibitor control (TNNI3K): 100%
% binding compared to no inhibitor control (YANK1): 100%
% binding compared to no inhibitor control (MAPKAPK2): 93%
% binding compared to no inhibitor control (PRP4): 100%
cooperation with / sensitization to AZ-628 (cell viability) (HKe-3 (K-RAS^−/+)): lost its ability to cooperate with AZ-628
ability to competitively inhibit active site (ATP) binding across the kinase panel (panel of 402 kinases): failed to effectively inhibit ATP binding by the majority of kinases
